From patent publication US20220016101A1 (ACADIA Pharmaceuticals Inc., priority 2018, published 2022)

How the values were obtained:
[1] = test system: adults with Parkinson's disease and depression; assay: HAMD-17 total score, open-label study in Parkinson's disease and depression; format: in vivo, human; conditions: Week 8; interim, first 31 patients
Procedure: (§1) Subjects can receive treatment as either monotherapy or adjunctively if inadequately controlled with SSRI/SNRI monotherapy. A primary endpoint of the study is change from baseline to Week 8 in the Hamilton Depression Scale 17-item (HAMD-17) total score. Secondary endpoints include Clinical Global Impression (CGI) scales (improvement and severity), Scale of Outcomes in PD-Sleep (SCOPA), and quality of life as measured by EuroQol-5 dimensions-5 levels (EQ-5D-5L).
Subjects were assessed for eligibility and prohibited medications were discontinued. After all screening assessments were completed, eligible subjects returned to the clinic for Baseline evaluation. After Baseline assessments were completed, subjects were enrolled and received the first dose of pimavanserin. Study medication were provided to the subjects to take home with instructions to take the medication approximately the same time each day, and return all used containers and unused study drug as scheduled.
(§2) At approximately 2, 4, and 6 weeks after start of dosing of study drug subjects returned to the clinic for assessments. Safety measures, HAMD-17, C-SSRS (Columbia Suicide Severity Rating Scale), CGI-S(Clinical Global Impression-Severity), and CGI-I (Clinical Global Impression-Improvement) were evaluated at all visits. […]
The HAMD-17 total score was analyzed using mixed model for repeated measures (MMRM). […]

[2] = test system: adults with Parkinson's disease and depression; assay: CGI-I, open-label study in Parkinson's disease and depression; format: in vivo, human; conditions: interim, first 31 patients
Text: “Clinical Global Impression (CGI)” scale is a clinician-rated, 7-point scale that is designed to rate the severity of the subject's depression at the time of assessment using the Investigator's judgment and past experience with subjects who have the same disorder (i.e., depression with anxious distress). “Clinical Global Impression-Improvement (CGI-I)” is a clinician-rated, 7-point scale that is designed to rate the improvement in the subject's depression at the time of assessment, relative to the symptoms at Baseline. “Clinical Global Impression—Severity (CGI-S)” is an assessment of the current severity of the patient's disease.
as §1, with “A primary endpoint of the study is change from baseline to Week 8 in the Hamilton Depression Scale 17-item (HAMD-17) total score.” left out
as §2

CC(C)COc1ccc(CNC(=O)N(Cc2ccc(F)cc2)C2CCN(C)CC2)cc1 [pimavanserin, N-(4-Fluorophenylmethyl)-N-(1-methylpiperidin-4-yl)-N′-(4-(2-methylpropyloxy)phenylmethyl)carbamide]
patients reaching remission (HAMD-17≤7) [1]: 35.5% | patients with ≥50% improvement in the HAMD-17 [1]: 45.2% | patients with a CGI-I score of 1 or 2 (very much improved or much improved) [2]: 54.8%
